From patent EP0411159B1, “METHOD FOR DETERMINING ENZYMATIC ACTIVITY” (IATRON LABORATORIES, INC., priority 1989, dated 1990)
≈ marks a conversion by molar mass, not a printed value.

Assays:
[1] = prior-art substrate; needs solubilizing auxiliary agent such as cyclodextrin or crown ether; cited from earlier work
[2] = stability (decomposition) of the substrate in aqueous solution; format: physicochemical
[3] = water solubility of the substrate (aqueous solution prepared)

SMILES | solubility in water (in words) [1] | degraded at 1 h ([2]; enzyme reaction conditions (pH 5, 37°C) for one hour, read-out: decomposition ratio) [%] | stability of aqueous solution ([2]; under ice-cooling) | degraded ([2]; water, aqueous solution left to stand at room temperature overnight) [%] | solubility [3] [mM]
CC(=O)N[C@H]1[C@H](Oc2ccc([N+](=O)[O-])cc2Cl)O[C@H](CO)[C@@H](O)[C@@H]1O [2-chloro-4-nitrophenyl-N-acetyl-β-D-glucosaminide] | difficult to dissolve in water |  |  |  | 
CC(=O)N[C@H]1[C@H](Oc2ccc([N+](=O)[O-])c([N+](=O)[O-])c2)O[C@H](CO)[C@@H](O)[C@@H]1O [3,4-DNG, 3,4-dinitrophenyl-N-acetyl-β-D-glucosaminide] |  | 1.5 | stable | ~1 | 12 (≈ 4650 µg/mL)
